[ ]: non-standard residue; d: D form. NMeA = CN[C@@H](C)C(=O)O; Nle = CCCC[C@H](N)C(=O)O
Experiments:
[1] = system: guinea pigs; assay: In vivo bronchodilator activity by tracheal instillation against histamine-induced bronchoconstriction; design: species or system guinea pig; conditions: 100 μl, anesthetized male Hartley guinea pigs, histamine challenge 50 μg/kg i.v., inhibition of tracheal pressure increase
[2] = system: guinea pig tracheal smooth muscle; assay: Tracheal relaxant activity of VIP analogs on isolated guinea pig tracheal rings; assay type: cell-based; conditions: cumulative concentration response; responses as % of maximum response to VIP (10^-6 M=100%); at least three tissues pooled; linear regression

Row | Substance | Bronchodilator activity in guinea pigs, ED50 [1] [µg] | EC50 [2] [nM]
1 | Ac--[Lys^12, Nle^17, Ala^19, Ala^25, Leu^26, Lys^27,28 ]--VIP (Ac-HSDAVFTDNYTKLRKQ[Nle]AAKKYLNALKK-NH2; SMILES CCCC[C@H](NC(=O)[C@H](CCC(N)=O)NC(=O)[C@H](CCCCN)NC(=O)[C@H](CCCNC(=N)N)NC(=O)[C@H](CC(C)C)NC(=O)[C@H](CCCCN)NC(=O)[C@@H](NC(=O)[C@H](Cc1ccc(O)cc1)NC(=O)[C@H](CC(N)=O)NC(=O)[C@H](CC(=O)O)NC(=O)[C@@H](NC(=O)[C@H](Cc1ccccc1)NC(=O)[C@@H](NC(=O)[C@H](C)NC(=O)[C@H](CC(=O)O)NC(=O)[C@H](CO)NC(=O)[C@H](Cc1c[nH]cn1)NC(C)=O)C(C)C)[C@@H](C)O)[C@@H](C)O)C(=O)N[C@@H](C)C(=O)N[C@@H](C)C(=O)N[C@@H](CCCCN)C(=O)N[C@@H](CCCCN)C(=O)N[C@@H](Cc1ccc(O)cc1)C(=O)N[C@@H](CC(C)C)C(=O)N[C@@H](CC(N)=O)C(=O)N[C@@H](C)C(=O)N[C@@H](CC(C)C)C(=O)N[C@@H](CCCCN)C(=O)N[C@@H](CCCCN)C(N)=O) [Ac--(SEQ ID NO: 12)--NH2] | 0.014 | 1.5
2 | Ac--[Lys^12, Nle^17, Ala^19, Ala^25, Leu^26, Lys^27,28, Ala^29-31 ]--VIP (Ac-HSDAVFTDNYTKLRKQ[Nle]AAKKYLNALKKAAA-NH2; SMILES CCCC[C@H](NC(=O)[C@H](CCC(N)=O)NC(=O)[C@H](CCCCN)NC(=O)[C@H](CCCNC(=N)N)NC(=O)[C@H](CC(C)C)NC(=O)[C@H](CCCCN)NC(=O)[C@@H](NC(=O)[C@H](Cc1ccc(O)cc1)NC(=O)[C@H](CC(N)=O)NC(=O)[C@H](CC(=O)O)NC(=O)[C@@H](NC(=O)[C@H](Cc1ccccc1)NC(=O)[C@@H](NC(=O)[C@H](C)NC(=O)[C@H](CC(=O)O)NC(=O)[C@H](CO)NC(=O)[C@H](Cc1c[nH]cn1)NC(C)=O)C(C)C)[C@@H](C)O)[C@@H](C)O)C(=O)N[C@@H](C)C(=O)N[C@@H](C)C(=O)N[C@@H](CCCCN)C(=O)N[C@@H](CCCCN)C(=O)N[C@@H](Cc1ccc(O)cc1)C(=O)N[C@@H](CC(C)C)C(=O)N[C@@H](CC(N)=O)C(=O)N[C@@H](C)C(=O)N[C@@H](CC(C)C)C(=O)N[C@@H](CCCCN)C(=O)N[C@@H](CCCCN)C(=O)N[C@@H](C)C(=O)N[C@@H](C)C(=O)N[C@@H](C)C(N)=O) [Ac--(SEQ ID NO: 22)--NH2] | 0.046 | 0.24
3 | Ac--[N--Me--Ala^1, Lys^12, Nle^17, Val^26, Thr^28 ]--VIP (Ac-[NMeA]SDAVFTDNYTKLRKQ[Nle]AVKKYLNSVLT-NH2; SMILES CCCC[C@H](NC(=O)[C@H](CCC(N)=O)NC(=O)[C@H](CCCCN)NC(=O)[C@H](CCCNC(=N)N)NC(=O)[C@H](CC(C)C)NC(=O)[C@H](CCCCN)NC(=O)[C@@H](NC(=O)[C@H](Cc1ccc(O)cc1)NC(=O)[C@H](CC(N)=O)NC(=O)[C@H](CC(=O)O)NC(=O)[C@@H](NC(=O)[C@H](Cc1ccccc1)NC(=O)[C@@H](NC(=O)[C@H](C)NC(=O)[C@H](CC(=O)O)NC(=O)[C@H](CO)NC(=O)[C@H](C)N(C)C(C)=O)C(C)C)[C@@H](C)O)[C@@H](C)O)C(=O)N[C@@H](C)C(=O)N[C@H](C(=O)N[C@@H](CCCCN)C(=O)N[C@@H](CCCCN)C(=O)N[C@@H](Cc1ccc(O)cc1)C(=O)N[C@@H](CC(C)C)C(=O)N[C@@H](CC(N)=O)C(=O)N[C@@H](CO)C(=O)N[C@H](C(=O)N[C@@H](CC(C)C)C(=O)N[C@H](C(N)=O)[C@@H](C)O)C(C)C)C(C)C) [Ac--(SEQ ID NO: 88)--NH2] | 8.5 | 7.2
4 | Ac--[Ala^2, Glu^8, Lys^12, Nle^17, Ala^19, Val^26, Thr^28, Ala^29-31 ]--VIP (Ac-HADAVFTENYTKLRKQ[Nle]AAKKYLNSVLTAAA-NH2; SMILES CCCC[C@H](NC(=O)[C@H](CCC(N)=O)NC(=O)[C@H](CCCCN)NC(=O)[C@H](CCCNC(=N)N)NC(=O)[C@H](CC(C)C)NC(=O)[C@H](CCCCN)NC(=O)[C@@H](NC(=O)[C@H](Cc1ccc(O)cc1)NC(=O)[C@H](CC(N)=O)NC(=O)[C@H](CCC(=O)O)NC(=O)[C@@H](NC(=O)[C@H](Cc1ccccc1)NC(=O)[C@@H](NC(=O)[C@H](C)NC(=O)[C@H](CC(=O)O)NC(=O)[C@H](C)NC(=O)[C@H](Cc1c[nH]cn1)NC(C)=O)C(C)C)[C@@H](C)O)[C@@H](C)O)C(=O)N[C@@H](C)C(=O)N[C@@H](C)C(=O)N[C@@H](CCCCN)C(=O)N[C@@H](CCCCN)C(=O)N[C@@H](Cc1ccc(O)cc1)C(=O)N[C@@H](CC(C)C)C(=O)N[C@@H](CC(N)=O)C(=O)N[C@@H](CO)C(=O)N[C@H](C(=O)N[C@@H](CC(C)C)C(=O)N[C@H](C(=O)N[C@@H](C)C(=O)N[C@@H](C)C(=O)N[C@@H](C)C(N)=O)[C@@H](C)O)C(C)C) [Ac--(SEQ ID NO: 19)--NH2] | 0.47 | 0.23

Source: patent publication US5234907A, “Synthetic vasoactive intestinal peptide analogs” (Hoffmann-La Roche Inc., priority 1991, dated 1993)
